Results published in PubChem BioAssay AID180 (DTP/NCI, 2004).
“And” between values parts separate entries of the source, which are not always exact repeats. Identical values can stand only once.

Test system: BDF1 mice, Adenocarcinoma 755 s.c., tumor weight T/C
Assay: NCI In Vivo Anticancer Drug Screen. Data for tumor model Adenocarcinoma 755 (subcutaneous) in B6D2F1 (BDF1) mice
Settings: endpoint: mean tumor weight, higher = larger tumour
Experimental: The antitumor activity of compounds was measured in mice bearing transplantable tumors. Survival or tumor size were measured and the results are expressed as the measurement made in the treated group (T) divided by the measurement made in the vehicle treated control group (C). The tumor model used in this assay is Adenocarcinoma 755 (subcutaneous) in B6D2F1 (BDF1) mice

[1] = dose: 3.1 mg/kg/injection, schedule: Q01DX011 (ip), vehicle: methylcellulose (MC)
[2] = dose: 12.5 mg/kg/injection, schedule: Q01DX011 (ip), vehicle: methylcellulose (MC)
[3] = dose: 9.5 mg/kg/injection, schedule: Q01DX011 (ip), vehicle: carboxymethylcellulose (CMC)
[4] = dose: 75.0 mg/kg/injection, schedule: Q01DX011 (ip), vehicle: carboxymethylcellulose (CMC)
[5] = dose: 25.0 mg/kg/injection, schedule: Q01DX011 (ip), vehicle: carboxymethylcellulose (CMC)
[6] = dose: 50.0 mg/kg/injection, schedule: Q01DX011 (ip), vehicle: carboxymethylcellulose (CMC)

**Q.** Which results are given for `CCCNc1ncnc2c1cnn2C1CCCO1` (configuration not stated)?
**A.** T/C (dose: 1.5 mg/kg/injection, schedule: Q01DX011 (ip), vehicle: methylcellulose (MC)): 75 % of control; T/C [1]: 66 % of control; T/C (dose: 6.2 mg/kg/injection, schedule: Q01DX011 (ip), vehicle: methylcellulose (MC)): 27 % of control; T/C [2]: 3 % of control and 4 % of control

**Q.** What does the source list for `Nc1ncnc2c1cnn2Cc1ccc(Cl)cc1`?
**A.** T/C [3]: 98 % of control; T/C [4]: 38 % of control

**Q.** Which T/C (dose: 0.5 mg/kg/injection, schedule: Q01DX011 (ip), vehicle: carboxymethylcellulose (CMC)) does the source give for `O=C(NCCCCCCCCCCNC(=O)N1CC1)N1CC1` here?
**A.** 57 % of control and 66 % of control

**Q.** And the T/C (dose: 1.0 mg/kg/injection, schedule: Q01DX011 (ip), vehicle: carboxymethylcellulose (CMC))?
**A.** 2 % of control and 20 % of control

**Q.** For `Cc1ccc2c(c1)Sc1ccc3ccccc3c1N2`, which T/C (dose: 12.5 mg/kg/injection, schedule: Q01DX011 (ip), vehicle: carboxymethylcellulose (CMC)) is on record?
**A.** 57 % of control

**Q.** What about the T/C (dose: 15.0 mg/kg/injection, schedule: Q01DX011 (ip), vehicle: saline) of the same compound?
**A.** 94 % of control

**Q.** What about the T/C (dose: 22.0 mg/kg/injection, schedule: Q01DX011 (ip), vehicle: saline) of the same compound?
**A.** 42 % of control

**Q.** And the T/C [5]?
**A.** 27 % of control

**Q.** And the T/C (dose: 33.0 mg/kg/injection, schedule: Q01DX011 (ip), vehicle: saline)?
**A.** 36 % of control

**Q.** And the T/C [6]?
**A.** 26 % of control and 42 % of control

**Q.** And the T/C (dose: 50.0 mg/kg/injection, schedule: Q01DX011 (ip), vehicle: saline)?
**A.** 26 % of control and 51 % of control

**Q.** What about the T/C (dose: 62.5 mg/kg/injection, schedule: Q01DX011 (ip), vehicle: carboxymethylcellulose (CMC)) of the same compound?
**A.** 58 % of control

**Q.** What about the T/C [4] of the same compound?
**A.** 37 % of control

**Q.** What about the T/C (dose: 75.0 mg/kg/injection, schedule: Q01DX011 (ip), vehicle: saline) of the same compound?
**A.** 28 % of control

**Q.** And the T/C (dose: 112.0 mg/kg/injection, schedule: Q01DX011 (ip), vehicle: carboxymethylcellulose (CMC))?
**A.** 43 % of control

**Q.** And the T/C (dose: 112.0 mg/kg/injection, schedule: Q01DX011 (ip), vehicle: saline)?
**A.** 14 % of control

**Q.** And the T/C (dose: 168.0 mg/kg/injection, schedule: Q01DX011 (ip), vehicle: carboxymethylcellulose (CMC))?
**A.** 18 % of control and 22 % of control

**Q.** And the T/C (dose: 168.0 mg/kg/injection, schedule: Q01DX011 (ip), vehicle: saline)?
**A.** 14 % of control

**Q.** What about the T/C (dose: 335.0 mg/kg/injection, schedule: Q01DX011 (ip), vehicle: carboxymethylcellulose (CMC)) of the same compound?
**A.** 10 % of control

**Q.** How did the T/C [1] turn out when `CCCSc1nc(N)nc2c1ncn2C1OC(CO)C(O)C1O` (configuration not stated) was run?
**A.** 33 % of control

**Q.** What about the T/C (dose: 6.25 mg/kg/injection, schedule: Q01DX011 (ip), vehicle: methylcellulose (MC)) of the same compound?
**A.** 4 % of control

**Q.** And the T/C [2]?
**A.** 2 % of control

**Q.** Which results are given for `CCOC(=O)NP(=O)(N1CC1)N1CC1`?
**A.** T/C (dose: 2.37 mg/kg/injection, schedule: Q01DX011 (ip), vehicle: carboxymethylcellulose (CMC)): 118 % of control; T/C (dose: 2.5 mg/kg/injection, schedule: Q01DX011 (ip), vehicle: carboxymethylcellulose (CMC)): 67 % of control; T/C (dose: 4.75 mg/kg/injection, schedule: Q01DX011 (ip), vehicle: carboxymethylcellulose (CMC)): 104 % of control; T/C (dose: 5.0 mg/kg/injection, schedule: Q01DX011 (ip), vehicle: carboxymethylcellulose (CMC)): 73 % of control; T/C (dose: 7.6 mg/kg/injection, schedule: Q01DX011 (ip), vehicle: carboxymethylcellulose (CMC)): 101 % of control; T/C (dose: 8.0 mg/kg/injection, schedule: Q01DX011 (ip), vehicle: carboxymethylcellulose (CMC)): 52 % of control; T/C [3]: 61 % of control and 75 % of control; T/C (dose: 10.0 mg/kg/injection, schedule: Q01DX011 (ip), vehicle: carboxymethylcellulose (CMC)): 58 % of control and 77 % of control; T/C (dose: 12.66 mg/kg/injection, schedule: Q01DX011 (ip), vehicle: carboxymethylcellulose (CMC)): 54 % of control; T/C (dose: 13.3 mg/kg/injection, schedule: Q01DX011 (ip), vehicle: carboxymethylcellulose (CMC)): 18 % of control; T/C (dose: 19.0 mg/kg/injection, schedule: Q01DX011 (ip), vehicle: carboxymethylcellulose (CMC)): 17 % of control and 20 % of control; T/C (dose: 20.0 mg/kg/injection, schedule: Q01DX011 (ip), vehicle: carboxymethylcellulose (CMC)): 14 % of control

**Q.** For `N#[N+]c1nc[nH]c1C(N)=O`, which T/C (dose: 1.25 mg/kg/injection, schedule: Q01DX011 (ip), vehicle: methylcellulose (MC)) is on record?
**A.** 61 % of control

**Q.** Which T/C (dose: 3.05 mg/kg/injection, schedule: Q01DX011 (ip), vehicle: carboxymethylcellulose (CMC)) does the source give for `C1OC1C1CO1` (configuration not stated) here?
**A.** 83 % of control

**Q.** What about the T/C (dose: 3.5 mg/kg/injection, schedule: Q01DX011 (ip), vehicle: carboxymethylcellulose (CMC)) of the same compound?
**A.** 77 % of control

**Q.** What about the T/C (dose: 7.0 mg/kg/injection, schedule: Q01DX011 (ip), vehicle: carboxymethylcellulose (CMC)) of the same compound?
**A.** 72 % of control

**Q.** And the T/C (dose: 8.13 mg/kg/injection, schedule: Q01DX011 (ip), vehicle: carboxymethylcellulose (CMC))?
**A.** 62 % of control and 68 % of control

**Q.** And the T/C (dose: 14.0 mg/kg/injection, schedule: Q01DX011 (ip), vehicle: carboxymethylcellulose (CMC))?
**A.** 110 % of control

**Q.** And the T/C (dose: 24.4 mg/kg/injection, schedule: Q01DX011 (ip), vehicle: carboxymethylcellulose (CMC))?
**A.** 24 % of control and 33 % of control and 45 % of control

**Q.** What about the T/C (dose: 28.0 mg/kg/injection, schedule: Q01DX011 (ip), vehicle: carboxymethylcellulose (CMC)) of the same compound?
**A.** 61 % of control

**Q.** Which T/C (dose: 7.5 mg/kg/injection, schedule: Q01DX011 (ip), vehicle: carboxymethylcellulose (CMC)) does the source give for `Cn1c(Cl)nc2nc(Cl)nc(Cl)c21` here?
**A.** 110 % of control

**Q.** How did the T/C (dose: 25.0 mg/kg/injection, schedule: Q01DX011 (ip), vehicle: methylcellulose (MC)) turn out when `Nc1nc(SCc2ccccc2Cl)c2ncn(C3CCCCC3)c2n1` was run?
**A.** 180 % of control

**Q.** And the T/C (dose: 75.0 mg/kg/injection, schedule: Q01DX011 (ip), vehicle: methylcellulose (MC))?
**A.** 166 % of control

**Q.** For `CC(=O)NCC(=O)O`, which T/C (dose: 100.0 mg/kg/injection, schedule: Q01DX011 (ip), vehicle: other) is on record?
**A.** 106 % of control

**Q.** What about the T/C (dose: 200.0 mg/kg/injection, schedule: Q01DX011 (ip), vehicle: other) of the same compound?
**A.** 74 % of control

**Q.** What about the T/C (dose: 800.0 mg/kg/injection, schedule: Q01DX011 (ip), vehicle: other) of the same compound?
**A.** 87 % of control

**Q.** Which results are given for `CN(C)c1ccc(/C=C\c2ccnc3ccccc23)cc1`?
**A.** T/C (dose: 3.1 mg/kg/injection, schedule: Q01DX011 (ip), vehicle: water): 100 % of control; T/C (dose: 5.0 mg/kg/injection, schedule: Q01DX011 (ip), vehicle: methylcellulose (MC)): 96 % of control; T/C (dose: 6.25 mg/kg/injection, schedule: Q01DX011 (ip), vehicle: water): 97 % of control; T/C (dose: 10.0 mg/kg/injection, schedule: Q01DX011 (ip), vehicle: methylcellulose (MC)): 96 % of control; T/C (dose: 12.5 mg/kg/injection, schedule: Q01DX011 (ip), vehicle: water): 90 % of control; T/C (dose: 20.0 mg/kg/injection, schedule: Q01DX011 (ip), vehicle: methylcellulose (MC)): 86 % of control; T/C (dose: 25.0 mg/kg/injection, schedule: Q01DX011 (ip), vehicle: water): 81 % of control; T/C (dose: 50.0 mg/kg/injection, schedule: Q01DX011 (ip), vehicle: water): 55 % of control; T/C (dose: 100.0 mg/kg/injection, schedule: Q01DX011 (ip), vehicle: water): 64 % of control

**Q.** For `COC(=O)C1C(O)CCC2CN3CCc4c([nH]c5ccccc45)C3CC21` (configuration not stated), which T/C (dose: 150.0 mg/kg/injection, schedule: Q01DX011 (ip), vehicle: carboxymethylcellulose (CMC)) is on record?
**A.** 75 % of control

**Q.** Which results are given for `FC(F)(F)c1nc(Cl)nc2c1ncn2Cc1ccccc1`?
**A.** T/C (dose: 30.0 mg/kg/injection, schedule: Q01DX011 (ip), vehicle: carboxymethylcellulose (CMC)): 56 % of control; T/C (dose: 60.0 mg/kg/injection, schedule: Q01DX011 (ip), vehicle: carboxymethylcellulose (CMC)): 97 % of control; T/C (dose: 120.0 mg/kg/injection, schedule: Q01DX011 (ip), vehicle: carboxymethylcellulose (CMC)): 97 % of control

**Q.** How did the T/C [5] turn out when `Nc1ccc2ccccc2c1N=Nc1ccccc1` was run?
**A.** 68 % of control

**Q.** What about the T/C [6] of the same compound?
**A.** 27 % of control

**Q.** And the T/C (dose: 100.0 mg/kg/injection, schedule: Q01DX011 (ip), vehicle: carboxymethylcellulose (CMC))?
**A.** 34 % of control

**Q.** And the T/C (dose: 200.0 mg/kg/injection, schedule: Q01DX011 (ip), vehicle: carboxymethylcellulose (CMC))?
**A.** 25 % of control

**Q.** For `C[C@]12C=CC(=O)C=C1CC[C@@H]1[C@@H]2[C@@H](O)C[C@@]2(C)[C@H]1CC[C@]2(O)C(=O)COC(=O)CCC1CCCC1`, which T/C (dose: 3.1 mg/kg/injection, schedule: Q01DX011 (sc), vehicle: steriod suspending solution) is on record?
**A.** 64 % of control

**Q.** And the T/C (dose: 6.25 mg/kg/injection, schedule: Q01DX011 (sc), vehicle: steriod suspending solution)?
**A.** 43 % of control

**Q.** What about the T/C (dose: 6.25 mg/kg/injection, schedule: Q01DX011 (sc), vehicle: water) of the same compound?
**A.** 47 % of control

**Q.** What about the T/C (dose: 12.5 mg/kg/injection, schedule: Q01DX011 (sc), vehicle: steriod suspending solution) of the same compound?
**A.** 34 % of control

**Q.** What about the T/C (dose: 12.5 mg/kg/injection, schedule: Q01DX011 (sc), vehicle: water) of the same compound?
**A.** 32 % of control

**Q.** And the T/C (dose: 25.0 mg/kg/injection, schedule: Q01DX011 (sc), vehicle: steriod suspending solution)?
**A.** 22 % of control

**Q.** And the T/C (dose: 25.0 mg/kg/injection, schedule: Q01DX011 (sc), vehicle: water)?
**A.** 12 % of control

**Q.** What about the T/C (dose: 50.0 mg/kg/injection, schedule: Q01DX011 (sc), vehicle: steriod suspending solution) of the same compound?
**A.** 13 % of control
